{"source": "patent US9085756B2", "about": "“Drug screening using islet cells and islet cell progenitors from human embryonic stem cells” (Asterias Biotherapeutic, Inc., priority 2001, dated 2015)", "tested_on": "hES cells", "assay": "Hepatocyte differentiation of hES cells, morphology", "type": "cell-based, human", "settings": "4 days in medium containing butyrate (after 1% DMSO pre-differentiation)", "description": "Undifferentiated hES cells were differentiated into cells having characteristics of human hepatocytes using a strategy to initiate a global differentiation process using DMSO in a subconfluent culture. The cells are then induced to form hepatocyte-like cells by the addition of Na-butyrate.\nBriefly, the hES cells were maintained in undifferentiated culture conditions for 2-3 days after splitting. At this time, the cells were 50 to 60% confluent and the medium was exchanged with unconditioned SR medium containing 1% DMSO (Step II). The cultures were fed daily with SR medium for 4 days and then exchanged into unconditioned SR medium containing both 1% DMSO and […] Na-butyrate, with which they were fed daily for 6 days (Step III). They were then replated onto collagen, and cultured in a hepatocyte maturation medium containing a cocktail of hepatocyte-friendly growth factors (Step IV)."}
{"molecule": "CCCC(=O)[O-].[Na+]", "note": "[butyrate, sodium n-butyrate]", "values": [{"measurement": "Cells in the culture with large nuclei and granular cytoplasm", "value": "more than 80%"}, {"measurement": "Cells in the culture with large nuclei and granular cytoplasm", "setting": "listed as sodium n-butyrate", "value": "More than 80%"}]}
